Measurements reported in US10537611B2, “Methods of treating lung cancer” (Five Prime Therapeutics, Inc., priority 2011, dated 2020).

Legend:
[1] = tested on: MDA-MB-231 xenograft model; assay: MDA-MB-231 xenograft tumor growth inhibition; assay type: in vivo, mouse; conditions: Breast MDA-MB-231; IP 15 mg/kg BIW; non-amplified; P ns
Experimental: Percentage tumor growth inhibition by FGFR1-ECD.339-Fc was determined by area-under-the-curve (AUC) analysis of xenograft growth curves treated with FGFR1-ECD.339-Fc compared to albumin control. […] The difference in FGFR1-ECD.339-Fc-mediated xenograft inhibition between FGFR1 gene amplified and non-amplified lung cancer xenograft models was statistically significant (P=0.0333).
Also shown in Table 5 are the dosing schedule for FGFR1-ECD.339-Fc in a mouse xenograft model, the percent tumor growth inhibition (TGI (%)) and the statistical significance of the tumor growth inhibition (P Value), as well as whether the FGFR1 gene is amplified in the cell line.
An exemplary xenograft experiment is as follows. For Caki-1 and MSTO-211H, five million cells were implanted subcutaneously over the right flank of SCID mice (N=10 per group). […] Representative tumor growth curves are shown for a renal cancer, Caki-1, (A), and mesothelioma, MSTO-211H, (B) xenograft cancer model. […] In the MSTO-211H mesothelioma model, FGFR1-ECD.339-Fc administration reduced tumor growth (FIG. 16b) by 64% (P<0.0001).

NCI-H1581 cells = assay: CellTiter-Glo cell number, NCI-H1581; assay type: cell-based, human; conditions: 15 μg/ml, 4 days, 10%, 1% or 0.1% FBS
From the text: A panel of lung cancer cell lines displaying potential amplification of the FGFR1 gene was identified using CONAN (http://www.sanger.ac.uk/cgi-bin/genetics/CGP/conan/search.cgi) and Tumorscape (http://www.broadinstitute.org/tumorscape/pages/portalHomejsf). CONAN and Tumorscape represent public data mining tools to extract gene copy number information for predefined or user defined loci across the SNP6.0 dataset of cancer. Lung cancer cell lines DMS53, DMS114, NCI-H1581 and NCI-H520 were identified as having potential amplification of the FGFR1 gene (>4 copies/cell) and were selected for further analysis. Human small cell lung cancer (SCLC) cell lines DMS53 and DMS114 were purchased from ATCC (Manassas, Va.; Cat. No. CRL-2062; Cat. No. CRL-2066, respectfully). The cells were cultured in Waymouth's MB 752/1 medium+10% FBS+2 mM L-glutamine at 37° C. in a humidified atmosphere with 5% CO2. […]
To determine cell number the CellTiter-Glo® Luminescent Cell Viability Assay (Promega, Madison, Wis.) was employed. CellTiter-Glo® is a homogeneous method of determining the number of viable cells in culture based on quantitation of the ATP present, an indicator of metabolically active cells. […] Luminescence was then determined on an EnVision™ Multilabel Plate Reader (PerkinElmer, Boston, Mass.) with a 0.2 second integration time. Results were expressed as relative light units (RLU)/well.

[2] = tested on: FGFR1 signaling (pFGFR1, pFRS2α, pAkt) in JIMT-1 tumors; assay: FGFR1 signaling in JIMT-1 breast cancer xenograft (western blotting); assay type: in vivo, mouse; conditions: for Phosphorylated Akt levels / Phosphorylated FRS levels: 15 mg/kg i.p.
Experimental: Animals with established (200 mm3) human breast cancer JIMT-1 tumors were administered either a single (24 and 72 hour timepoints) or three times per week (multidose) i.p. dose(s) of FGFR1-ECD.339-Fc at 15 mg/kg. Tumor samples were collected at 24 and 72 hours post-dose for the single dose groups and 48 hours post the last dose in multi-dose group, snap-frozen in liquid nitrogen and lyzed in RIPA buffer (Sigma Aldrich, St Luis, Mo.). Tumor lysates were separated by SDS-PAGE and western blotting was performed using monoclonal antibodies FGFR1, pFGFR1, FRS2α, pFRS2α, Akt, pAkt, and βActin (Cell Signaling Technology, Inc). FGFR1-ECD.339-Fc was detected using anti-human Fc monoclonal antibody (Jackson Immuno Research).

[3] = two days later (72 hours post-dose)

FGFR1-ECD.339-Fc: human FGFR1 extracellular domain ending at amino acid 339 fused to an Fc; SEQ ID NO: 6 (mature form), SEQ ID NO: 5 with signal peptide
TGI (%) [1]: 0% | cell number (CellTiter-Glo) (NCI-H1581 cells): reduced | levels of phosphorylated FGFR1 ([2]; 15 mg/kg i.p. single dose, 24 hours post-dose): reduced | FGFR1 phosphorylation ([2]; 15 mg/kg i.p. single dose, 72 hours post-dose): completely abolished | Phosphorylated Akt levels ([2]; 24 hours post-dose): reduced | Phosphorylated FRS levels ([2]; 24 hours post-dose): reduced | Phosphorylated Akt levels [2, 3]: further reduced | Phosphorylated FRS levels [2, 3]: further reduced
